The test system of one assay is plasma ANF concentration. Description: effect on rat plasma ANF concentration. The class given is in vivo, Male Sprague-Dawley rats. The conditions noted are these: about 10 mg/kg p.o., in 10% ethanol/polyethylene glycol 400; ANF infused 450 ng/kg/min i.v. Here is the method: The effect of the compounds of the invention on rat plasma ANF concentration can be determined as follows:
Male Sprague-Dawley rats (275-390 g) are anesthetized with ketamine (150 mg/kg)/acepromazine (10%) and instrumented with catheters in the femoral artery and vein to obtain blood samples and infuse ANF, respectively. The rats are tethered with a swivel system and are allowed to recover for 24 hours before being studied in the conscious, unrestrained state.
In this assay, plasma ANF levels are determined in the presence and absence of NEP inhibition. On the day of study, all rats are infused continuously with ANF at 450 ng/kg/min. i.v. for the entire 5 hours of the experiment. Sixty minutes after beginning the infusion, blood samples for baseline ANF measurements are obtained (time 0) and the rats are then randomly divided into groups treated with the test compound or vehicle. Additional blood samples are taken 30, 60, 120, 180 and 240 minutes after administration of the test compound.
Plasma concentrations are determined by a specific radioimmunoassay. […] The supenatant is decanted and the pellets counted in a gamma counter. […] Plasma ANF levels are expressed as a percent of those measured in vehicle-treated animals which received ANF alone (450 ng/kg/min i.v.).

The test system of assay [1] is DOCA-salt hypertensive rats. Description: antihypertensive effect in DOCA-salt hypertensive rats. The assay is classed as in vivo, rat. The conditions noted are these: 10 mg/Kg p.o., in PEG 400. Here is the method: The antihypertensive effect can be determined in desoxycorticosterone acetate (DOCA)-salt hypertensive rats.
DOCA-salt hypertensive rats (280-380 g) are prepared by the standard method. Rats underwent a unilateral nephrectomy and one week later are implanted with silastic pellets containing 100 mg/kg of DOCA. The rats are maintained on 1% NaCl/0.2% KCl drinking water for three to five weeks until sustained hypertension is established. The antihypertensive activity is evaluated at this time.
Two days before an experiment, the rats are anesthetized with methoxyflurane and instrumented with catheters in the femoral artery to measure arterial blood pressure. Forty-eight hours later, baseline arterial pressure and heart rate are recorded during a 1 hour period. The test compound or vehicle is then administered and the same cardiovascular parameters are monitored for an additional 5 hours.

For assay [2], the target named is T1, porcine endothelin converting enzyme (Sus scrofa, UniProt A0A8W4FBH0).
T1 construct: partially purified from porcine primary aortic endothelial cells by DE52 anion exchange column; endogenous in cells; host or cells: porcine primary aortic endothelial cells
T1 sequence (A0A8W4FBH0 1-751): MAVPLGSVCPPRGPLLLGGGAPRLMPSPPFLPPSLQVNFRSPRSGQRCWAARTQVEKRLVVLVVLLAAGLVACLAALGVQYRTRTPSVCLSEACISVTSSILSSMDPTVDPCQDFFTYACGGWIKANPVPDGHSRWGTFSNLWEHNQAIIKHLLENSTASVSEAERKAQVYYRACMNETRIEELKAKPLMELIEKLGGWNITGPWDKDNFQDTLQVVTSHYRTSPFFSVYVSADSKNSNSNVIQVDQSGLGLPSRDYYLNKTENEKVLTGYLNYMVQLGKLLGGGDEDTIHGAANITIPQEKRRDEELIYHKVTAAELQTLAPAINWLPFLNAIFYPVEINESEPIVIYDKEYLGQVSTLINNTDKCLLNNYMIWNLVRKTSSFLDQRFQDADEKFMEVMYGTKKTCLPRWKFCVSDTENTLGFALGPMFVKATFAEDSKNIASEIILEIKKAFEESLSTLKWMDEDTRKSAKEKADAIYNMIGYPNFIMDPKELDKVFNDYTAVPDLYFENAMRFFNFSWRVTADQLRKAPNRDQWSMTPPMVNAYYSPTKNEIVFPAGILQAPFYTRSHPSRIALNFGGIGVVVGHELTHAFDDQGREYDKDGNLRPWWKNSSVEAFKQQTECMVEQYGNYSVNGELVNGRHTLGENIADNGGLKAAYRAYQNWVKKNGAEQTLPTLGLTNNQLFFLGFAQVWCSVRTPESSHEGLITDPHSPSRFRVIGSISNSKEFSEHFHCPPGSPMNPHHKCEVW
The experiment in a line: in vitro inhibition of porcine endothelin-converting enzyme (ECE). The class given is biochemical. Particulars: partially purified from porcine primary aortic endothelial cells. The text has this: Endothelin converting enzyme (ECE) is partially purified from porcine primary aortic endothelial cells by DE52 anion exchange column chromatrography and its activity is quantified by radioimmunoassay as described in Anal. Biochem. 213, 434-436 (1993). The ECE inhibition can be determined as described in Biochem. Mol. Biol. Int. 31, (5), 861-867 (1993), by radioimmunoassay to measure ET-1 formed from big ET-1.

In assay [3] the test system is big ET-1 induced pressor response. The experiment in a line: inhibition of big ET-1 induced pressor response in conscious spontaneously hypertensive rats (SHR). The class given is in vivo. The conditions noted are these: continuous infusion of 5 mg/Kg/day; over 60 minutes; vs vehicle control. The protocol:
ECE inhibition can also be determined in vivo by measuring the inhibition big ET-1 induced pressor response in conscious spontaneously hypertensive rats (SHR), e.g. as described in Biochem. Biophys. Res. Communic. 204, 407-412 (1994).
Male SHR (16-18 weeks of age) are administered either test compound or vehicle (1M NaHCO3) via an osmotic minipump implated subcutaneously. On day 5 femoral arterial and venous catheters are placed in anesthetized rats for the measurement of MAP (mean arterial pressure) and for test compound administration, respectively. After a 48 hour recovery period, MAP is recorded (day 7) through the arterial catheter connected to a pressure transducer. Blood pressure and heart rate are allowed to stabilize for 30 minutes before ganglion blockade is performed using chlorisondamine ([…] i.v.). Approximately 15 minutes later, a bolus dose of big ET-1 (0.25 nmol/kg i.v.) is administered to both vehicle- and test compound treated rats. The change in blood pressure in response to big ET-1 is then compared between the two groups of rats at 1, 5, 10, 15, 30 and 60 min after dosing using a two-way ANOVA.

Assay [4] deals with spontaneous hypertensive rats. Description: mean arterial pressure of spontaneous hypertensive rats using telemetry. The assay is classed as in vivo, rat. Particulars: continuous infusion of 5 mg/Kg/day for 13 days, no exogenous big ET-1.

For the compound `O=P(CN[C@@H](Cc1ccc(-c2ccccc2)cc1)c1nnn[nH]1)(Oc1ccccc1)Oc1ccccc1`, the “plasma ANF levels” value in the assay on plasma ANF concentration was “significant increases in plasma ANF levels”. In addition, in assay [1], the blood pressure result is listed as “significant reduction in blood pressure”.

`O=P(O)(O)CN[C@@H](Cc1ccc(-c2ccccc2)cc1)c1nnn[nH]1` [(S)-[2-(Biphenyl-4-yl)-1-(1H-tetrazol-5-yl)-ethylamino]-methylphosphonic acid] gave an IC50 in assay [2] of approximately 1100 nM. Further, the “reduction of big ET-1 induced pressor response” value in assay [3] is “significant difference in reduction of big ET-1 induced pressor response”. In addition, in assay [4], the mean arterial pressure entry is “sustained reduction in the mean arterial pressure”.

By IC50 is commonly meant the concentration needed to halve the response being measured. Higher therefore signals weaker potency.

The values above are taken from patent publication US5550119A, “Phosphono substituted tetrazole derivatives as ECE inhibitors” (Ciba-Geigy Corporation, priority 1995, dated 1996).
